These results are taken from the NIST ThermoML archive (doi:10.1021/je200215d).

± gives the expanded uncertainty stated by the source.

For data set [1] the following is noted: for surface tension liquid-gas / mass density: 298.15 K; for surface tension liquid-gas: Maximal bubble pressure; for mass density: 101.33 kPa, Vibrating tube method; for mass density / vapor or sublimation pressure: Liquid; for vapor or sublimation pressure: Ebulliometric method (Recirculating still).
Data set [2] in a line: refractive index (Na D-line) (dimensionless). To be noted: 298.15 K; 101.33 kPa; Liquid; Standard Abbe refractometry.
A short description of data set [3]: xn = mol fraction of the nth substance listed. As to conditions: 303.15 K, Maximal bubble pressure.

The term surface tension liquid-gas denotes the force per length acting along the surface. Usually mass density stands for the mass of a sample divided by its volume. For orientation: vapor or sublimation pressure means the equilibrium pressure above the liquid or solid. As usually defined, the refractive index is a measure of how strongly the sample bends light. On to `CCC(C)(C)OC` [2-methoxy-2-methylbutane], for which, in data set [1], the surface tension liquid-gas was determined as 22 ± 0.23 mN/m and the mass density is listed as 765.8 ± 0.18 kg/m3. Moreover, the “vapor or sublimation pressure” value in data set [1] (359.52 K) amounted to 101.33 ± 0.21 kPa. The refractive index in data set [2] was 1.38712 ± 0.00072.
`CCC(C)(C)OC` [2-methoxy-2-methylbutane] + CCO: the surface tension liquid-gas in data set [3] (x2 = 0) worked out at 22 ± 0.26 mN/m; in data set [3] (x2 = 0.04) it was 21.97 ± 0.26 mN/m; in data set [3] (x2 = 0.071), 21.95 ± 0.26 mN/m; in data set [3] (x2 = 0.137), 21.93 ± 0.26 mN/m; in data set [3] (x2 = 0.198), 21.9 ± 0.26 mN/m; in data set [3] (x2 = 0.252) it was 21.88 ± 0.26 mN/m. Besides, the surface tension liquid-gas stood at 21.86 ± 0.26 mN/m in data set [3] (x2 = 0.303); 21.84 ± 0.26 mN/m in data set [3] (x2 = 0.41); 21.81 ± 0.26 mN/m in data set [3] (x2 = 0.508); 21.78 ± 0.26 mN/m in data set [3] (x2 = 0.611); 21.76 ± 0.26 mN/m in data set [3] (x2 = 0.708); 21.73 ± 0.26 mN/m in data set [3] (x2 = 0.803). In addition, in data set [3] (x2 = 0.898), the surface tension liquid-gas worked out at 21.71 ± 0.26 mN/m.
In the case of `CCO` [ethanol], in data set [1], the surface tension liquid-gas is 21.7 ± 0.23 mN/m and the mass density worked out at 785.05 ± 0.16 kg/m3. For the same compound, the “vapor or sublimation pressure” value in data set [1] (351.45 K) turned out to be 101.33 ± 0.21 kPa. The refractive index in data set [2] is 1.36068 ± 0.00072.
In the case of `CCO` [ethanol] + CCC(C)(C)OC, the surface tension liquid-gas in data set [3] (x1 = 1) amounted to 21.7 ± 0.26 mN/m.
